Experimental data published in paper PMC8642284 (Structure (London, England : 1993), 2021).

T1: ACAT2 (Homo sapiens, UniProt O75908)
T1 sequence (O75908 1-522): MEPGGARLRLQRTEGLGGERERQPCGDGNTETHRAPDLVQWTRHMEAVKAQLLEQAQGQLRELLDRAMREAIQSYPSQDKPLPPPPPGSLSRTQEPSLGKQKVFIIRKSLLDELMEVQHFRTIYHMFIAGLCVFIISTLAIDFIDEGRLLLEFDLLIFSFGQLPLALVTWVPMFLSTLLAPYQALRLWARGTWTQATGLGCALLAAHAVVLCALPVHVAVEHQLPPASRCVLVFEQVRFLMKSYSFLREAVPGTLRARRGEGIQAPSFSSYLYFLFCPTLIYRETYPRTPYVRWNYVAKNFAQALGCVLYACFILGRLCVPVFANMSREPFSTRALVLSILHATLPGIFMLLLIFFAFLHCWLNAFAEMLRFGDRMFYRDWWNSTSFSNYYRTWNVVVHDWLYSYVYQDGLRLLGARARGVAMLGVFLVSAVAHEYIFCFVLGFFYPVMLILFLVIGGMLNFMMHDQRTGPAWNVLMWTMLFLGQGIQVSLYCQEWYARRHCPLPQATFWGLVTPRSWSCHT

B1: human ACAT2 (acyl-CoA:cholesterol acyltransferase 2) (enzyme)
chain: EPGGARLRLQRTEGLGGERERQPCGDGNTETHRAPDLVQWTRHMEAVKAQLLEQAQGQLRELLDRAMREAIQSYPSQDKPLPPPPPGSLSRTQEPSLGKQKVFIIRKSLLDELMEVQHFRTIYHMFIAGLCVFIISTLAIDFIDEGRLLLEFDLLIFSFGQLPLALVTWVPMFLSTLLAPYQALRLWARGTWTQATGLGCALLAAHAVVLCALPVHVAVEHQLPPASRCVLVFEQVRFLMKSYSFLREAVPGTLRARRGEGIQAPSFSSYLYFLFCPTLIYRETYPRTPYVRWNYVAKNFAQALGCVLYACFILGRLCVPVFANMSREPFSTRALVLSILHATLPGIFMLLLIFFAFLHCWLNAFAEMLRFGDRMFYRDWWNSTSFSNYYRTWNVVVHDWLYSYVYQDGLRLLGARARGVAMLGVFLVSAVAHEYIFCFVLGFFYPVMLILFLVIGGMLNFMMHDQRTGPAWNVLMWTMLFLGQGIQVSLYCQEWYARRHCPLPQATFWGLVTPRSWSCHT

Tests used:
ACAT2 = molecular target: T1, ACAT2; assay: cryo-EM structure; assay type: biochemical
cryo-EM structure = molecular target: the molecule itself; assay: cryo-EM structure

Row | Molecule | IC50 (ACAT2) [nM] | stoichiometry N (cryo-EM structure)
1 | CC(C)c1cccc(C(C)C)c1NC(=O)NCC1(c2ccc(N(C)C)cc2)CCCC1 [nevanimibe] | 710 | –
2 | B1 | – | 4
